molecular target: T1, Trp-p8 (Homo sapiens, UniProt Q7Z2W7, T58I); test: Cell viability (ATP) assay for Trp-p8 antagonists: protection of CHO/Trp-p8 cells from toxic control agonist D-1607; assay type: cell-based; settings: Table 2, Formula VIII antagonists; 10 μM compound plus toxic concentration of control agonist D-1607, CHO/Trp-p8 cells, 37° C.; ATP level relative to DMSO
T1 construct: expressed in transfected cells
Experimental: FIG. 4 is a graph depicting exemplary results from a primary screen for Trp-p8 antagonists using the ATP viability assay, described herein, with CHO/Trp-p8 cells at 37° C. CHO/Trp-p8 cells were exposed to compounds, at different concentrations, in 1% DMSO or 1% DMSO in combination with a toxic concentration of the Trp-p8 agonist 1607. The viability of cells was measured after 24-26 hours at 37° C. using the ATP assay.
As a primary screen for efficacy and specificity for agonists, both the non-transfected CHO and CHO/Trp-p8 cells were exposed to 10 μM of test compounds in 1% dimethylsulfoxide (DMSO) or 1% DMSO (control) in a 96-well black walled, black-bottomed, cell-culture treated plate. DMSO was the solvent for all of the compounds tested. After 24-26 hours at 37° C., the cells were lysed and ATP concentration determined via a chemiluminescence assay using a commercially available reagent kit—Cell Titer-Glo (Promega; Madison, Wis.). […] (EC50 is defined herein as the agonist concentration at which there is a 50% reduction in cell viability).
Trp-p8 antagonists were identified by employing a cell viability assay with CHO/Trp-p8 cells at 37° C. (see Example 7) with the following modification. Within the context of the present invention, compounds that protect CHO/Trp-p8 cells from the toxic effect of a control agonist thereby maintaining the viability of the CHO/Trp-p8 cell exposed to a Trp-p8 agonist is defined as antagonist. As a primary screen for antagonists, CHO/Trp-p8 cells were exposed to 10 μM of test compounds in 1% dimethylsulfoxide (DMSO) or 1% DMSO plus a toxic concentration of a control agonist, D-1607.

T1 sequence (Q7Z2W7 whole entry T58I): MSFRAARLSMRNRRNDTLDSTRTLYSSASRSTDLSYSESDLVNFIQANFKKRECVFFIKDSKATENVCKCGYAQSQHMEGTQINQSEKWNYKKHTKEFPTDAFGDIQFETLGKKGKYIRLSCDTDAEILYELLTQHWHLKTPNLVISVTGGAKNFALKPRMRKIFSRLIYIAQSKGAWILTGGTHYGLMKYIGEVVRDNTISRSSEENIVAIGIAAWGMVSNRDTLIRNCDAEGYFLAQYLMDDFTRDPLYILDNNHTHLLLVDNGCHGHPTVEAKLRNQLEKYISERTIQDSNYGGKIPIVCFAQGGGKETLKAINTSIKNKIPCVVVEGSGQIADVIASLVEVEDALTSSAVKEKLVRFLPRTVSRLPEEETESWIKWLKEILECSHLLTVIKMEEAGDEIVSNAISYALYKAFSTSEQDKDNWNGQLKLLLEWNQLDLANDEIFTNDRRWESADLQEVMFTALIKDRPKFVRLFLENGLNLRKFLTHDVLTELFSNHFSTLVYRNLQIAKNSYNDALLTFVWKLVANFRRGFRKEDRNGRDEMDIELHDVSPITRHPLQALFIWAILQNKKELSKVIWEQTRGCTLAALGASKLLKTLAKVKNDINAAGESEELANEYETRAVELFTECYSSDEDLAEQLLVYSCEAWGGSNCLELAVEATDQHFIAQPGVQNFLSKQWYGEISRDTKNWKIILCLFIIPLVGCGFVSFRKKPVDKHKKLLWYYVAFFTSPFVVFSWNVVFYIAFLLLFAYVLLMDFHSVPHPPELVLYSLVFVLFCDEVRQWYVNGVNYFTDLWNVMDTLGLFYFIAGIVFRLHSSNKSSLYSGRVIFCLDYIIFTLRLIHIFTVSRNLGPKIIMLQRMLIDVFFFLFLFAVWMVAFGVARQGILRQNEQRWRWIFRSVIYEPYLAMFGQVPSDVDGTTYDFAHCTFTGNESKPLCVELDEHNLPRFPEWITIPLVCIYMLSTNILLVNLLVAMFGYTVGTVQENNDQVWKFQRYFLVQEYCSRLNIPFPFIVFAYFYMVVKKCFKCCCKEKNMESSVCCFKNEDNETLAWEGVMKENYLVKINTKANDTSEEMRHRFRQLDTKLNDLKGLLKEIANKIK

Going from `CC(C)[C@@H]1CC[C@@H](C)C[C@H]1OC(=O)N1CCc2ccccc2C1` [compound 1457] to `CC(C)[C@@H]1CC[C@@H](C)C[C@H]1OC(=O)N1CCn2cccc2C1C` (stereo partly shown) [compound 1940], the “Relative Viability (%) at 10 μM” value falls from 112% to 110%.

Going from `CC(NC(=O)CO[C@@H]1C[C@H](C)CC[C@H]1C(C)C)c1ccccc1` (stereo partly shown) [compound 1664] to `CC(C)[C@@H]1CC[C@@H](C)C[C@H]1OCC(=O)NCc1ccccc1Cl` [compound 1669], the “Relative Viability (%) at 10 μM” value falls from 107% to 86%.

First: CC(C)[C@@H]1CC[C@@H](C)C[C@H]1NC(=O)NC1CCCCCC1 [compound 1876]
Second: CC(C)[C@@H]1CC[C@@H](C)C[C@H]1NC(=O)NCCCSC1CCCCC1 [compound 1882]
The “Relative Viability (%) at 10 μM” value of the first is higher: 86% for the first, 85% for the second.

Compared with `CC(C)[C@@H]1CC[C@@H](C)C[C@H]1NC(=O)SCc1ccccc1Cl` [compound 2306], `CC(C)[C@@H]1CC[C@@H](C)C[C@H]1NC(=O)COc1ccccc1[N+](=O)[O-]` [compound 2045] is higher in “Relative Viability (%) at 10 μM” value: 92% for the first, 191% for the second.

Compared with `CC(C)[C@@H]1CC[C@@H](C)C[C@H]1NC(=O)NCCN(Cc1ccccc1)C(C)C` [compound 1885], `CCCCOc1ccc(C(=O)N[C@@H]2C[C@H](C)CC[C@H]2C(C)C)cc1` [compound 2044] is lower in “Relative Viability (%) at 10 μM” value: 97% for the first, 94% for the second.

Compared with `CC(C)[C@@H]1CC[C@@H](C)C[C@H]1OCC(=O)N1c2ccccc2CC1C` (stereo partly shown) [compound 1691], `CC(C)[C@@H]1CC[C@@H](C)C[C@H]1OCC(=O)NCCc1cccs1` [compound 1925] is higher in “Relative Viability (%) at 10 μM” value: 92% for the first, 94% for the second.

First: CC(C)[C@@H]1CC[C@@H](C)C[C@H]1NS(=O)(=O)c1c(Cl)cc(Cl)cc1Cl [compound 2131]
Second: COc1ccc(C2c3[nH]c4ccccc4c3CCN2C(=O)[C@@H]2C[C@H](C)CC[C@H]2C(C)C)cc1CN1CCc2cc(OC)c(OC)cc2C1C (stereo partly shown) [compound 2676]
The “Relative Viability (%) at 10 μM” value of the first is lower: 59% for the first, 83% for the second.

same assay, conditions: Table 3, Formula VII antagonists; 10 μM compound plus toxic concentration of control agonist, CHO/Trp-p8 cells, 37° C.; ATP level relative to DMSO

First: O=C1C(c2ccc(F)cc2Cl)N(C2CCCc3ccccc32)C(=O)CN1C1CCCCCC1 (stereo not shown) [compound 1280]
Second: O=C1C(c2ccc(Cl)cc2)N(C2CCCCC2)C(=O)CN1C1CCCC1 (stereo not shown) [compound 1284]
The “Rel. Viab. (%) at 10 μM” value of the first is lower: 87% for the first, 95% for the second.

Going from `Fc1ccc(N2CCN(c3ncnc4c3cnn4-c3ccccc3)CC2)cc1` [compound 159] to `Clc1ccccc1N1CCN(c2ncnc3c2cnn3-c2ccccc2)CC1` [compound 51], the “Rel. Viab. (%) at 10 μM” value rises from 95% to 100%.

First: Cc1ccc(C(c2sc3nc(C)nn3c2O)N2CCN(C(c3ccccc3)c3ccccc3)CC2)cc1 (stereo not shown) [compound 1019]
Second: Cc1nc2sc(C(c3cccs3)N3CCN(C(c4ccccc4)c4ccccc4)CC3)c(O)n2n1 (stereo not shown) [compound 1039]
The “Rel. Viab. (%) at 10 μM” value of the first is higher: 87% for the first, 84% for the second.

Compared with `COc1ccc(N2CCN(CC(O)COC3CC(C)CCC3C(C)C)CC2)cc1.Cl.Cl` (stereo not shown) [compound 93], `COc1ccccc1N1CCN(CC(O)COC2CC(C)CCC2C(C)C)CC1.Cl.Cl` (stereo not shown) [compound 36] is lower in “Rel. Viab. (%) at 10 μM” value: 111% for the first, 87% for the second.

For `c1ccc(Cn2ncc3c(N4CCN(c5ccccn5)CC4)ncnc32)cc1` [compound 13], the “Rel. Viab. (%) at 10 μM” value was 91%.

molecular target: T1, Trp-p8; test: Calcium flux assay (Fura-2) for agonists in CHO/Trp-p8 cells at 37° C.; assay type: cell-based; settings: 1 μM, CHO and CHO/Trp-p8 cells
Experimental: FIGS. 2A-2C are graphs depicting Trp-p8 agonist-induced increases in intracellular calcium as determined by a calcium flux assay performed at 37° C.
Calcium influx was measured using a Flexstation Microplate Fluorescence Plate Reader (Molecular Devices; Sunnyvale, Calif.). A typical assay for calcium flux was performed as follows. Cells in DMEM/Ham's F-12 based medium, typically at a density of 30,000 cells/well/100 were plated in a 96-well black-walled, clear bottomed tissue culture plate (Greiner Bio-one) and incubated for 16-20 hours at 37° C. Cells in each well were incubated for one hour at 37° C. with a Fura2-AM Fluorescent Dye/Pluronic […] mixture (Molecular Probes; Eugene, Oreg.) and dissolved in the medium containing Probenecid. […]
Typically, the above described HEPES/HBSS-based buffer containing either no additional calcium or with calcium to increase the concentration to 2 mM and various concentrations of compounds (at 5-times the final concentrations) were added to each well using the robotic multi-channel pipettor. […] Signals were read with dual excitation wavelengths of 340 and 380 nm and emission wavelength of 510 nm with a cut-off filter at 495 nm. The signal was reported as the ratio of emission when excited at 340 nm to the emission when excited at 380 nm [Relative Fluorescence Units (RFU)]. […]

With `C[C@H](CCC(=O)O)C[C@H](C)C[C@H](C)C(=O)/C=C(\O)[C@H](C)C[C@H](C)C/C=C/[C@@H](C)[C@@H](O)[C@@H](C)[C@@H](O)C[C@@H]1CC[C@@](C)([C@H]2CC[C@@](C)([C@@H](C)O)O2)O1` [Ionomycin, reference compound] the “Response to positive control in calcium flux assay (FIG. 2A)” value was “respond similarly”.

same assay, conditions: CHO/Trp-p8 cells

In the case of `CC(C)[C@@H]1CC[C@@H](C)C[C@H]1C(=O)NCCc1ccccc1` [compound 1603], the “Increase in intracellular calcium (FIG. 2C)” value is reported as “specific, concentration-dependent response”.

test system: Trp-p8 orthologues; test: not given; settings: reported by McKemy et al. and Peier et al.; cited from earlier work

Compared with `CC1CCC(C(C)C)C(O)C1` (stereo not shown) [Menthol, 2-isopropyl-5-methyl-cyclohexanol], `O=C1NC(c2cccc([N+](=O)[O-])c2)=CCN1c1ccccc1O` [Icilin, 1-(2-hydroxyphenyl)-4-(3-nitrophenyl)-1,2,3,6-tetrahydropyrimidine-2-one] is lower in “Effective concentration in inducing calcium influx” value: 10 to 100 µM for the first, 0.1 to 1 µM for the second.

test system: Trp-p8; test: not given; settings: cold-sensitive neurons, Trp-p8 in Xenopus oocytes, HEK293 and CHO cells; cited from earlier work

For `CC1CCC(C(C)C)C(O)C1` (stereo not shown) [Menthol, 2-isopropyl-5-methyl-cyclohexanol], the “Higher temperature threshold reported for Trp-p8 activation” value is given as 30-32 °C.

Source: patent publication US8389730B2, “Compositions and methods for the treatment of disease associated with TRP-P8 expression” (Dendreon Corporation, priority 2003, dated 2013)
